This passage reports Km, kcat and kcat/Km results from article PMC5356311, “Experimental recreation of the evolution of lignin-degrading enzymes from the Jurassic to date” (Biotechnology for Biofuels, 2017).

Series [1] deals with ALiP. The experiment in a line: steady-state kinetics, spectrophotometric ([…] nm). The series is classed as biochemical, ancestral sequence (Polyporales, reconstructed). To be noted: 0.2 mM H2O2, 0.1 M tartrate, pH 3.0, 25 °C; high efficiency site (exposed Trp).
For series [2], the system named is CaCD. The experiment in a line: steady-state kinetics, spectrophotometric ([…] nm). To be noted: 0.4 mM H2O2, 0.1 M tartrate, pH 3.0, 25 °C; low efficiency site (heme channel). The series is classed as biochemical, ancestral sequence (Polyporales, reconstructed).
Series [3] has as its system AVP. The experiment in a line: steady-state kinetics, spectrophotometric ([…] nm). The series is classed as biochemical, ancestral sequence (Polyporales, reconstructed). To be noted: 0.4 mM H2O2, 0.1 M tartrate, pH 3.0, 25 °C; biphasic kinetics, high efficiency site (exposed Trp).
The next series relates to CaPo. The experiment in a line: steady-state kinetics, spectrophotometric ([…] nm). The series is classed as biochemical, ancestral sequence (Polyporales, reconstructed). To be noted: 0.4 mM H2O2, 0.1 M tartrate, pH 2, 25 °C; low efficiency site (heme channel).
In series [4] the test system is AVP. The experiment in a line: steady-state kinetics, spectrophotometric ([…] nm). The series is classed as biochemical, ancestral sequence (Polyporales, reconstructed). To be noted: 0.4 mM H2O2, 0.1 M tartrate, pH 3.5, 25 °C; exposed Trp site.
The subject of series [5] is ALiP. The experiment in a line: steady-state kinetics, spectrophotometric ([…] nm). The series is classed as biochemical, ancestral sequence (Polyporales, reconstructed). The following applies: 0.2 mM H2O2, 0.1 M tartrate, pH 3.0, 25 °C; exposed Trp site.
In series [6] the test system is ALiP. The experiment in a line: steady-state kinetics, spectrophotometric ([…] nm). To be noted: 0.2 mM H2O2, 0.1 M tartrate, pH 3, 25 °C; exposed Trp site. The series is classed as biochemical, ancestral sequence (Polyporales, reconstructed).
The subject of series [7] is AVP. The experiment in a line: steady-state kinetics, spectrophotometric ([…] nm). The series is classed as biochemical, ancestral sequence (Polyporales, reconstructed). The following applies: 0.4 mM H2O2, 0.1 M tartrate, pH 3, 25 °C; exposed Trp site.
The next series relates to CaPo-bis. To be noted: saturating H2O2, 0.1 M tartrate, 25 °C; low efficiency site (heme channel).
The subject of series [8] is AVP. The experiment in a line: steady-state kinetics, spectrophotometric ([…] nm). The series is classed as biochemical, ancestral sequence (Polyporales, reconstructed). To be noted: 0.4 mM H2O2, 0.1 M tartrate, pH 3.5, 25 °C; biphasic kinetics, high efficiency site (exposed Trp).
The test system of another series is CaPo-tris. The following applies: saturating H2O2, 0.1 M tartrate, 25 °C; low efficiency site (heme channel).
The test system of series [9] is CaCD. To be noted: read-out: CaCD; 0.4 mM H2O2, 0.1 M tartrate, pH 3.5, 25 °C; low efficiency site (heme channel).
Series [10] has as its system ALiP. The following applies: read-out: ALiP; 0.2 mM H2O2, 0.1 M tartrate, pH 3.5, 25 °C; high efficiency site (exposed Trp).
Substrate in series [11]: CCn1c(=NN=c2sc3cc(S(=O)(=O)O)ccc3n2CC)sc2cc(S(=O)(=O)O)ccc21
The experiment in a line: purified protein. The series is classed as biochemical, Phanerodontia chrysosporium. The following applies: 0.1 mM H2O2, 0.1 M tartrate, pH 3.5, 25 °C, high efficiency site (exposed Trp).

Substrate in series [12]: COc1ccc(CO)cc1OC
The experiment in a line: purified protein. To be noted: 0.1 mM H2O2, 0.1 M tartrate, pH 3.0, 25 °C, exposed Trp site. The series is classed as biochemical, Phanerodontia chrysosporium.

Substrate in series [13]: COc1cccc(OC)c1O
The experiment in a line: purified protein. To be noted: 0.1 mM H2O2, 0.1 M tartrate, pH 3.0, 25 °C, high efficiency site (exposed Trp). The series is classed as biochemical, Phanerodontia chrysosporium.

Where two headings read alike, the source gives them in different places.

With `COc1cccc(OC)c1O` [DMP], the Km with ALiP [1] was found to be 34 ± 5.4 µM; in the series on CaCD [2], 66800 µM; with AVP [3], 5.3 ± 1.1 µM; in the series on CaPo, 32900 µM.

With `COc1ccc(CO)cc1OC` [VA], the Km worked out at 299 ± 104 µM in the series with AVP [4] and 773 ± 155 µM in the series with ALiP [5].

As for `Nc1c(N=Nc2ccc(S(=O)(=O)CCOS(=O)(=O)O)cc2)c(S(=O)(=O)O)cc2cc(S(=O)(=O)O)c(N=Nc3ccc(S(=O)(=O)CCOS(=O)(=O)O)cc3)c(O)c12` [RB5], the Km is 12.6 ± 3.6 µM in the series with ALiP [6] and 4.8 ± 0.8 µM in the series on AVP [7].

On to `CCn1c(=NN=c2sc3cc(S(=O)(=O)O)ccc3n2CC)sc2cc(S(=O)(=O)O)ccc21` [ABTS], for which the Km with CaPo-bis came out at 1390 ± 345 µM; in the series with AVP [8] it was 5.4 ± 0.7 µM; with CaPo-tris, 807 ± 104 µM; with CaCD [9], 1280 ± 350 µM; in the series with ALiP [10] it was 13.7 ± 3.5 µM.

B1: LiPH8 (Phanerodontia chrysosporium) (protein)
chain: ATCSNGKTVGDASCCAWFDVLDDIQQNLFHGGQCGAEAHESIRLVFHDSIAISPAMEAQGKFGGGGADGSIMIFDDIETAFHPNIGLDEIVKLQKPFVQKHGVTPGDFIAFAGRVALSNCPGAPQMNFFTGRAPATQPAPDGLVPEPFHTVDQIINRVNDAGEFDELELVWMLSAHSVAAVNDVDPTVQGLPFDSTPGIFDSQFFVETQLRGTAFPGSGGNQGEVESPLPGEIRIQSDHTIARDSRTACEWQSFVNNQSKLVDDFQFIFLALTQLGQDPNAMTDCSDVIPQSKPIPGNLPFSFFPAGKTIKDVEQACAETPFPTLTTLPGPETSVQRIPPPPGA
Turning to B1, the figures for the Km in the series “purified protein [11]”, in the series “purified protein [12]” and in the series “purified protein [13]” were 21.3 ± 2.3 µM, 79.3 ± 18 µM and 4.0 ± 0.07 µM, respectively. Further, the kcat in “purified protein [11]” came out at 6.5 ± 0.2 s⁻¹; in “purified protein [12]”, 16.2 ± 0.8 s⁻¹. Moreover, the values for the kcat/Km in “purified protein [11]” and in “purified protein [12]” were 300000 ± 25000 M⁻¹ s⁻¹ and 205000 ± 4000 M⁻¹ s⁻¹, respectively.
